Measured values: US20230002324A1, “NAPHTHOQUINONE DERIVATIVES FOR TREATMENT OF OXIDATIVE STRESS DISORDERS” (PTC THERAPEUTICS, INC., priority 2019, published 2023)

Each compound was assayed on normal human fibroblasts (NHF, GM21811) (assay: NHF GM21811 RSL3 challenge cell survival (rescue) assay). Conditions: Fibroblast, NHF cells, RSL3 2 micromolar, 48 h, Cell Titer Glo, read-out: NHF GM21811 RSL3 Survival EC50.
Format: cell-based
Source text: (§1) In neuronal cells excess extracellular glutamate inhibits the cystine/glutamate antiporter leading to intracellular cysteine depletion, GSH depletion, reactive oxygen species (ROS) production and cell death, a phenomenon termed oxidative glutamate toxicity, oxytosis, or ferroptosis. […] Q7 cells (ST HDH Q7/7; immortalized mouse striatal cells) challenged with cystine-free media or the selective, irreversible GPX4 inhibitor, methyl (1S,3R)-2-(2-chloroacetyl)-1-(4-(methoxycarbonyl)phenyl)-2,3,4,9-tetrahydro-1H-pyrido[3,4-b]indole-3-carboxylate (hereafter referred to as RSL3), recapitulate this phenotype, as do normal human fibroblasts (NHF) challenged with RSL3. An initial screen was performed to identify compounds effective in rescuing Q7 and/or NHF cells from death resulting from cystine deprivation or RSL3 challenge. This method is further described in Yonezawa et al., J. Neurochem 67, 566-573 (1996), Li et al., J Neurosci., 23, 5816-5826 (2003), Yang and Stockwell, Chem Biol., 15: 234-45 (2008), and Yang et al., Cell 156, 317-331 (2014). See also Hinman A, Holst C R, Latham J C, et al. Vitamin E hydroquinone is an endogenous regulator of ferroptosis via redox control of 15-lipoxygenase. PLoS One. 2018; 13(8):e0201369. Published 2018 Aug. 15. doi:10.1371/journal.pone.0201369; and Kahn-Kirby A H, Amagata A, Maeder C I, et al. Targeting ferroptosis: A novel therapeutic strategy for the treatment of mitochondrial disease-related epilepsy. PLoS One. 2019; 14(3):e0214250. Published 2019 Mar. 28. doi:10.1371/journal.pone.0214250.
(§2) DMEM (Catalog no. 11995-040), DMEM without Cystine (Catalog no. 21013-024), DMEM without Glucose (Catalog A1443001), PBS (Phosphate buffered saline), Penicillin-streptomycin mix, L-Glutamine, Glucose, Phenol Red, and Pyruvate were purchased from ThermoFisher Scientific (Gibco). Fetal Bovine Serum was obtained from Mediatech, Inc., or Sigma Aldrich. Mouse striatum derived ST HDH Q7/7 (Q7) and normal human skin fibroblast (NHF, product number GM21811) cells were obtained from the Coriell Institute. Methionine and Vitamin K2 were purchased from Sigma Aldrich. RSL3 was synthesized as previously described (see e.g. US Patent Publication US2010/0081654). Cell Titer Glo 2.0 was purchased from Promega. Q7 cell culture medium (Q7 growth medium) was made by combining 50 mL Fetal Bovine Serum, 100 U/mL penicillin, and 100 microgram/mL streptomycin; DMEM was added to make the volume up to 500 mL. Assay medium for the Cystine Deprivation assay was prepared by combining 50 mL Fetal Bovine Serum, 100 U/mL penicillin, 100 microgram/mL streptomycin, 4 mM L-Glutamine, 1 mM Pyruvate and 30 mg/L Methionine; DMEM without Cystine was added to make the volume up to 500 mL. NHF cell culture medium (NHF growth medium) was made by combining 50 mL Fetal Bovine Serum, 100 U/mL penicillin, 100 microgram/mL streptomycin, 2.8 mL 20% Glucose solution (final concentration 6 mM), L-glutamine (final concentration 2 mM), phenol red (final concentration 15 mg/L); DMEM without Glucose was added to make the volume up to 500 mL. Assay medium for the RSL3 challenge assay was identical to Growth medium. While not in use during the course of the experiments, these solutions were stored at 4° C. The cells were grown in 150-cm^2 tissue culture-treated flasks. Every third or fourth day, the cells were sub-cultured by trypsinization and re-seeded at a cell density of 600,000 (Q7) or 300,000 (NHF) cells per flask.
(§3) Q7 or NHF cells were cultured routinely as described herein. For 384-well cell survival assays, cells were seeded in clear bottom, black wall 384-well tissue culture-treated polystyrene plates by re-suspending a cell suspension at a density of 50,000 cells/mL in growth medium, then dispensing 60 microliters of cell suspension per well using either an electronic multichannel pipette or a Multidrop™ Combi Reagent Dispenser (ThermoFisher Scientific), corresponding to 3,000 cells/well. […]

CCC1=C(Cc2ccc(F)c(C)n2)C(=O)c2c(F)ccc(F)c2C1=O [Example 140, 2-ethyl-5,8-difluoro-3-((5-fluoro-6-methylpyridin-2-yl)methyl)naphthalene-1,4-dione] and CCC1=C(Cc2ccc(C(F)(F)F)c(O)n2)C(=O)c2c(F)ccc(F)c2C1=O [Example 153, 2-ethyl-5,8-difluoro-3-((6-hydroxy-5-(trifluoromethyl)pyridin-2-yl)methyl)naphthalene-1,4-dione] cannot be ordered by EC50: under 0.05 µM for the first, under 0.05 µM for the second.

CCC1=C(Cc2ccc(OC(F)(F)F)cn2)C(=O)c2c(F)cc(F)cc2C1=O [Example 142, 2-ethyl-5,7-difluoro-3-((5-(trifluoromethoxy)pyridin-2-yl)methyl)naphthalene-1,4-dione] and CCC1=C(Cc2ccc(F)cn2)C(=O)c2c(F)cc(F)cc2C1=O [Example 92, 2-ethyl-5,7-difluoro-3-((5-fluoropyridin-2-yl)methyl)naphthalene-1,4-dione] cannot be ordered by EC50: under 0.05 µM for the first, under 0.05 µM for the second.

CCC1=C(Cc2ccc(C(F)(F)F)c(OC)n2)C(=O)c2c(F)ccc(F)c2C1=O [Example 152, 2-ethyl-5,8-difluoro-3-((6-methoxy-5-(trifluoromethyl)pyridin-2-yl)methyl)naphthalene-1,4-dione] and CCC1=C(Cc2cc(C(F)(F)F)c(OC)cn2)C(=O)c2c(F)ccc(F)c2C1=O [Example 134, 2-ethyl-5,8-difluoro-3-((5-methoxy-4-(trifluoromethyl)pyridin-2-yl)methyl)naphthalene-1,4-dione] cannot be ordered by EC50: under 0.05 µM for the first, under 0.05 µM for the second.

CCC1=C(Cc2ccc(C(F)(F)F)cn2)C(=O)c2cccc(F)c2C1=O [Example 61, 3-ethyl-5-fluoro-2-((5-(trifluoromethyl)pyridin-2-yl)methyl)naphthalene-1,4-dione] and CCC1=C(Cc2ccc(C(F)(F)F)cn2)C(=O)c2c(ccc(F)c2F)C1=O [Example 63, 2-ethyl-5,6-difluoro-3-((5-(trifluoromethyl)pyridin-2-yl)methyl)naphthalene-1,4-dione] cannot be ordered by EC50: under 0.05 µM for the first, under 0.05 µM for the second.

CCC1=C(Cc2ccc(C(C)(F)F)cn2)C(=O)c2ccccc2C1=O [Example 137, 2-((5-(1,1-difluoroethyl)pyridin-2-yl)methyl)-3-ethylnaphthalene-1,4-dione] and CCC1=C(Cc2ccc(C(F)(F)C(F)(F)F)cn2)C(=O)c2ccccc2C1=O [Example 148, 2-ethyl-3-((5-(perfluoroethyl)142yridine-2-yl)methyl)naphthalene-1,4-dione] cannot be ordered by EC50: under 0.05 µM for the first, under 0.05 µM for the second.

CC1=C(Cc2ccc(C(F)(F)F)cn2)C(=O)c2cc(C)ccc2C1=O [Example 42, 2,6-dimethyl-3-((5-(trifluoromethyl)pyridin-2-yl)methyl)naphthalene-1,4-dione] and CC1=C(Cc2ccc(C(F)(F)F)cn2)C(=O)c2ccc(F)cc2C1=O [Example 44, 6-fluoro-3-methyl-2-((5-(trifluoromethyl)pyridin-2-yl)methyl)naphthalene-1,4-dione] cannot be ordered by EC50: under 0.05 µM for the first, under 0.05 µM for the second.

First: COc1cnc(CC2=C(C)C(=O)c3ccccc3C2=O)cc1C(F)(F)F [Example 145, 2-((5-methoxy-4-(trifluoromethyl)pyridin-2-yl)methyl)-3-methylnaphthalene-1,4-dione]
Second: [2H]C([2H])([2H])C1=C(Cc2ccc(C(F)(F)F)c(C(=O)O)n2)C(=O)c2c(F)ccc(F)c2C1=O [Example 127, 6-((5,8-difluoro-3-(methyl-d3)-1,4-dioxo-1,4-dihydronaphthalen-2-yl)methyl)-3-(trifluoromethyl)picolinic acid]
The EC50 of the first is lower: under 0.05 µM for the first, 0.05 to 0.25 µM for the second. The first is the more potent here.

O=C1C(Cc2ccc(C(F)(F)F)cn2)=C(CC2COC2)C(=O)c2c(F)ccc(F)c21 [Example 90, 5,8-difluoro-2-(oxetan-3-ylmethyl)-3-((5-(trifluoromethyl)pyridin-2-yl)methyl)naphthalene-1,4-dione] and N#Cc1nc(CC2=C(C3CC3)C(=O)c3cc(F)cc(F)c3C2=O)ccc1C(F)(F)F [Example 95, 6-((3-cyclopropyl-6,8-difluoro-1,4-dioxo-1,4-dihydronaphthalen-2-yl)methyl)-3-(trifluoromethyl)picolinonitrile] cannot be ordered by EC50: under 0.05 µM for the first, under 0.05 µM for the second.

What follows are compounds tested on Q7 cells (ST HDH Q7/7; immortalized mouse striatal cells) (assay: Q7 Cystine Deprivation cell survival (rescue) assay). Conditions: 18 h, read-out: Q7 Cystine Deprivation Survival EC50.
Format: cell-based
Source text: as §1, §2, §3

Cc1c(Cc2ccc(C(F)(F)F)cn2)c(O)c2ccccc2c1O [Example 131, 2-methyl-3-((5-(trifluoromethyl)pyridin-2-yl)methyl)naphthalene-1,4-diol] was tested, and the EC50 was under 0.05 µM.

Same assay, conditions: Q7 cells, cystine-free medium, 18 h, Cell Titer Glo, 50% relative viability vs Vitamin K2 (1 micromolar), read-out: Q7 Cystine Deprivation Survival EC50

CCCC1=C(Cc2ccc(C(F)(F)F)c(C#N)n2)C(=O)c2ccccc2C1=O [Example 114, 6-((1,4-dioxo-3-propyl-1,4-dihydronaphthalen-2-yl)methyl)-3-(trifluoromethyl)picolinonitrile] and CC1=C(Cc2ccc(C(F)(F)F)cn2)C(=O)c2cc(C)ccc2C1=O [Example 42, 2,6-dimethyl-3-((5-(trifluoromethyl)pyridin-2-yl)methyl)naphthalene-1,4-dione] cannot be ordered by EC50: under 0.05 µM for the first, under 0.05 µM for the second.

Compared with CC1=C(Cc2ccc(C(F)(F)F)cn2)C(=O)c2cc(C(F)(F)F)ccc2C1=O [Example 53, 2-methyl-6-(trifluoromethyl)-3-((5-(trifluoromethyl)pyridin-2-yl)methyl)naphthalene-1,4-dione], CC1=C(Cc2ccc(C(F)(F)F)cn2)C(=O)c2ccc(F)cc2C1=O [Example 44, 6-fluoro-3-methyl-2-((5-(trifluoromethyl)pyridin-2-yl)methyl)naphthalene-1,4-dione] is lower in EC50: 0.05 to 0.25 µM for the first, under 0.05 µM for the second. The second is the more potent here.

Each compound was assayed on Q7 cells (ST HDH Q7/7; immortalized mouse striatal cells) (assay: Q7 RSL3 challenge cell survival (rescue) assay). Conditions: 18 h, read-out: Q7 RSL3 Survival EC50.
Format: cell-based
Source text: as §1, §2, §3

Cc1c(Cc2ccc(C(F)(F)F)cn2)c(O)c2ccccc2c1O [Example 131, 2-methyl-3-((5-(trifluoromethyl)pyridin-2-yl)methyl)naphthalene-1,4-diol] and CC1=C(Cc2ccc(C(F)(F)F)cn2)C(=O)c2cc(Cl)cc(Cl)c2C1=O [Example 58, 5,7-dichloro-3-methyl-2-[[5-(trifluoromethyl)-2-pyridyl]methyl]naphthalene-1,4-dione] cannot be ordered by EC50: under 0.05 µM for the first, under 0.05 µM for the second.

Same assay, conditions: Q7 cells, RSL3 2 micromolar, 18 h, Cell Titer Glo, read-out: Q7 RSL3 Survival EC50

CCCC1=C(Cc2ccc(C(F)(F)F)c(C#N)n2)C(=O)c2c(F)ccc(F)c2C1=O [Example 85, 6-((5,8-difluoro-1,4-dioxo-3-propyl-1,4-dihydronaphthalen-2-yl)methyl)-3-(trifluoromethyl)picolinonitrile] and CCCC1=C(Cc2ccc(C(F)(F)F)c(C#N)n2)C(=O)c2ccccc2C1=O [Example 114, 6-((1,4-dioxo-3-propyl-1,4-dihydronaphthalen-2-yl)methyl)-3-(trifluoromethyl)picolinonitrile] cannot be ordered by EC50: under 0.05 µM for the first, under 0.05 µM for the second.

First: CC1=C(Cc2ccc(C(F)(F)F)cn2)C(=O)c2cc(C(F)(F)F)ccc2C1=O [Example 53, 2-methyl-6-(trifluoromethyl)-3-((5-(trifluoromethyl)pyridin-2-yl)methyl)naphthalene-1,4-dione]
Second: CC1=C(Cc2ccc(C(F)(F)F)cn2)C(=O)c2ccc(Cl)cc2C1=O [Example 59, 6-chloro-3-methyl-2-[[5-(trifluoromethyl)-2-pyridyl]methyl]naphthalene-1,4-dione]
The EC50 of the first is higher: 0.05 to 0.25 µM for the first, under 0.05 µM for the second.

First: CC1=C(Cc2ccc(C(F)(F)F)c(C#N)n2)C(=O)c2c(F)c(F)cc(F)c2C1=O [Example 130, 6-((5,7,8-trifluoro-3-methyl-1,4-dioxo-1,4-dihydronaphthalen-2-yl)methyl)-3-(trifluoromethyl)picolinonitrile]
Second: CC1=C(Cc2ccc(C(F)(F)F)cn2)C(=O)c2ccc(F)c(F)c2C1=O [Example 80, 5,6-difluoro-3-methyl-2-((5-(trifluoromethyl)pyridin-2-yl)methyl)naphthalene-1,4-dione]
The EC50 of the first is higher: over 1 µM for the first, under 0.05 µM for the second. The second is the more potent here.

[2H]C([2H])([2H])C1=C(C([2H])([2H])c2ccc(C(F)(F)F)cn2)C(=O)c2ccccc2C1=O [Example 22, 2-(methyl-d3)-3-((5-(trifluoromethyl)pyridin-2-yl)methyl-d2)naphthalene-1,4-dione] and CC1=C(Cc2ccc(C(F)(F)F)cn2)C(=O)c2cc(F)c(F)cc2C1=O [Example 78, 6,7-difluoro-2-methyl-3-((5-(trifluoromethyl)pyridin-2-yl)methyl)naphthalene-1,4-dione] cannot be ordered by EC50: under 0.05 µM for the first, under 0.05 µM for the second.
